Results: PubChem BioAssay (NCI)
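Where inhibition never reached the appropriate level, the endpoint shown equals the highest concentration tested. Otherwise, values were interpolated linearly from a five-concentration, 48-hour dose response in 96-well plates. GI50: concentration for 50% inhibition of growth. Definition used: TGI = concentration required for complete inhibition of growth.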

Tests used:
Assay in all cases: growth of human tumour cells (NCI), 48 h
786-0 renal = tested on: 786-0 renal
A498 renal = tested on: A498 renal
A549 NSCLC = tested on: A549 NSCLC
ACHN renal = tested on: ACHN renal
BT-549 breast = tested on: BT-549 breast
CAKI-1 renal = tested on: CAKI-1 renal
CCRF-CEM leukemia = tested on: CCRF-CEM leukemia
COLO 205 colon = tested on: COLO 205 colon
DU-145 prostate = tested on: DU-145 prostate
EKVX NSCLC = tested on: EKVX NSCLC
HCC-2998 colon = tested on: HCC-2998 colon
HCT-116 colon = tested on: HCT-116 colon
HCT-15 colon = tested on: HCT-15 colon
HL-60(TB) leukemia = tested on: HL-60(TB) leukemia
HOP-62 NSCLC = tested on: HOP-62 NSCLC
HOP-92 NSCLC = tested on: HOP-92 NSCLC
HS 578T breast = tested on: HS 578T breast
HT29 colon = tested on: HT29 colon
IGROV1 ovarian = tested on: IGROV1 ovarian
K-562 leukemia = tested on: K-562 leukemia
KM12 colon = tested on: KM12 colon
LOX IMVI melanoma = tested on: LOX IMVI melanoma
M14 melanoma = tested on: M14 melanoma
MALME-3M melanoma = tested on: MALME-3M melanoma
MCF7 breast = tested on: MCF7 breast
MDA-MB-231 breast = tested on: MDA-MB-231 breast
MDA-MB-435 = tested on: MDA-MB-435
MDA-MB-468 breast = tested on: MDA-MB-468 breast
MOLT-4 leukemia = tested on: MOLT-4 leukemia
NCI-H226 lung = tested on: NCI-H226 lung
NCI-H23 lung = tested on: NCI-H23 lung
NCI-H460 lung = tested on: NCI-H460 lung
NCI-H522 lung = tested on: NCI-H522 lung
OVCAR-3 ovarian = tested on: OVCAR-3 ovarian
OVCAR-4 ovarian = tested on: OVCAR-4 ovarian
OVCAR-5 ovarian = tested on: OVCAR-5 ovarian
OVCAR-8 ovarian = tested on: OVCAR-8 ovarian
PC-3 prostate = tested on: PC-3 prostate
RPMI-8226 leukemia = tested on: RPMI-8226 leukemia
RXF 393 renal = tested on: RXF 393 renal
SF-268 CNS = tested on: SF-268 CNS
SF-295 CNS = tested on: SF-295 CNS
SF-539 CNS = tested on: SF-539 CNS
SK-MEL-2 melanoma = tested on: SK-MEL-2 melanoma
SK-MEL-28 melanoma = tested on: SK-MEL-28 melanoma
SK-MEL-5 melanoma = tested on: SK-MEL-5 melanoma
SK-OV-3 ovarian = tested on: SK-OV-3 ovarian
SN12C renal = tested on: SN12C renal
SNB-19 CNS = tested on: SNB-19 CNS
SNB-75 CNS = tested on: SNB-75 CNS
SR leukemia = tested on: SR leukemia
SW-620 colon = tested on: SW-620 colon
T-47D breast = tested on: T-47D breast
TK-10 renal = tested on: TK-10 renal
U251 CNS = tested on: U251 CNS
UACC-257 melanoma = tested on: UACC-257 melanoma
UACC-62 melanoma = tested on: UACC-62 melanoma
UO-31 renal = tested on: UO-31 renal

O=C(c1ccc(Cl)cc1)C1[C@H](c2ccc(Br)cc2)[C@@H](c2ccccc2)NC12C(=O)Nc1ccccc12 (stereo partly specified) was tested, and the GI50 (786-0 renal) was 8 µM, the TGI (786-0 renal) was 23.1 µM and the GI50 (A498 renal) was 10.7 µM. The TGI (A498 renal) was 22.2 µM, the GI50 (A549 NSCLC) was 5.03 µM and the TGI (A549 NSCLC) was 15.9 µM. For the same compound, the GI50 (ACHN renal) was 5.64 µM, the TGI (ACHN renal) was 15.5 µM and the GI50 (BT-549 breast) was 8.86 µM. It also gave a TGI (BT-549 breast) of 17 µM, a GI50 (CAKI-1 renal) of 2.88 µM and a TGI (CAKI-1 renal) of 17.4 µM. For the same compound, the GI50 (CCRF-CEM leukemia) was 4.54 µM, the TGI (CCRF-CEM leukemia) was 26.8 µM and the GI50 (COLO 205 colon) was 9.95 µM. For the same compound, the TGI (COLO 205 colon) was 19.6 µM, the GI50 (DU-145 prostate) was 9.92 µM and the TGI (DU-145 prostate) was 28.5 µM. The GI50 (EKVX NSCLC) was 9.02 µM, the TGI (EKVX NSCLC) was 29 µM and the GI50 (HCC-2998 colon) was 7.79 µM. The TGI (HCC-2998 colon) was 16.7 µM, the GI50 (HCT-116 colon) was 3.83 µM and the TGI (HCT-116 colon) was 13.5 µM. For the same compound, the GI50 (HCT-15 colon) was 6.91 µM, the TGI (HCT-15 colon) was 18.7 µM and the GI50 (HL-60(TB) leukemia) was 8.74 µM. For the same compound, the TGI (HL-60(TB) leukemia) was 40.8 µM, the GI50 (HOP-62 NSCLC) was 8.69 µM and the TGI (HOP-62 NSCLC) was 18.3 µM. The GI50 (HOP-92 NSCLC) was 6.27 µM, the TGI (HOP-92 NSCLC) was 15.1 µM and the GI50 (HS 578T breast) was 8.79 µM. For the same compound, the TGI (HS 578T breast) was 26.3 µM, the GI50 (HT29 colon) was 5.7 µM and the TGI (HT29 colon) was 15 µM. It also gave a GI50 (IGROV1 ovarian) of 7.01 µM, a TGI (IGROV1 ovarian) of 16.2 µM and a GI50 (K-562 leukemia) of 2.94 µM. For the same compound, the TGI (K-562 leukemia) was 56 µM, the GI50 (KM12 colon) was 6.13 µM and the TGI (KM12 colon) was 17.9 µM. It also gave a GI50 (LOX IMVI melanoma) of 5.04 µM, a TGI (LOX IMVI melanoma) of 14.3 µM and a GI50 (M14 melanoma) of 6.97 µM. It also gave a TGI (M14 melanoma) of 16.4 µM, a GI50 (MALME-3M melanoma) of 8.65 µM and a TGI (MALME-3M melanoma) of 16.3 µM. The GI50 (MCF7 breast) was 4.65 µM, the TGI (MCF7 breast) was 29.3 µM and the GI50 (MDA-MB-231 breast) was 6.21 µM. It also gave a TGI (MDA-MB-231 breast) of 13.5 µM, a GI50 (MDA-MB-435) of 7.84 µM and a TGI (MDA-MB-435) of 16.9 µM. For the same compound, the GI50 (MDA-MB-468 breast) was 8.43 µM, the TGI (MDA-MB-468 breast) was 19.5 µM and the GI50 (MOLT-4 leukemia) was 2.69 µM. The TGI (MOLT-4 leukemia) was 48.7 µM, the GI50 (NCI-H226 lung) was 7.87 µM and the TGI (NCI-H226 lung) was 15.9 µM. For the same compound, the GI50 (NCI-H23 lung) was 8.53 µM, the TGI (NCI-H23 lung) was 19.6 µM and the GI50 (NCI-H460 lung) was 5.88 µM. For the same compound, the TGI (NCI-H460 lung) was 16 µM, the GI50 (NCI-H522 lung) was 5.93 µM and the TGI (NCI-H522 lung) was 15.5 µM. For the same compound, the GI50 (OVCAR-3 ovarian) was 8.74 µM, the TGI (OVCAR-3 ovarian) was 27.4 µM and the GI50 (OVCAR-4 ovarian) was 8.37 µM. The TGI (OVCAR-4 ovarian) was 31.3 µM, the GI50 (OVCAR-5 ovarian) was 7.19 µM and the TGI (OVCAR-5 ovarian) was 15.1 µM. The GI50 (OVCAR-8 ovarian) was 8.26 µM, the TGI (OVCAR-8 ovarian) was 17.3 µM and the GI50 (PC-3 prostate) was 2.86 µM. The TGI (PC-3 prostate) was 17.7 µM, the GI50 (RPMI-8226 leukemia) was 6.53 µM and the TGI (RPMI-8226 leukemia) was 33.9 µM. For the same compound, the GI50 (RXF 393 renal) was 6.62 µM, the TGI (RXF 393 renal) was 14 µM and the GI50 (SF-268 CNS) was 7.03 µM. The TGI (SF-268 CNS) was 28.9 µM, the GI50 (SF-295 CNS) was 6.33 µM and the TGI (SF-295 CNS) was 16.9 µM. It also gave a GI50 (SF-539 CNS) of 8.59 µM, a TGI (SF-539 CNS) of 18 µM and a GI50 (SK-MEL-2 melanoma) of 8.59 µM. The TGI (SK-MEL-2 melanoma) was 16.9 µM, the GI50 (SK-MEL-28 melanoma) was 7.53 µM and the TGI (SK-MEL-28 melanoma) was 15.1 µM. The GI50 (SK-MEL-5 melanoma) was 9.7 µM, the TGI (SK-MEL-5 melanoma) was 17.7 µM and the GI50 (SK-OV-3 ovarian) was 14.8 µM. For the same compound, the TGI (SK-OV-3 ovarian) was 54 µM, the GI50 (SN12C renal) was 5.41 µM and the TGI (SN12C renal) was 12.3 µM. The GI50 (SNB-19 CNS) was 10.7 µM, the TGI (SNB-19 CNS) was 42.2 µM and the GI50 (SNB-75 CNS) was 5.1 µM. It also gave a TGI (SNB-75 CNS) of 26.1 µM, a GI50 (SR leukemia) of 4.32 µM and a TGI (SR leukemia) of 42.2 µM. It also gave a GI50 (SW-620 colon) of 7.4 µM, a TGI (SW-620 colon) of 18.6 µM and a GI50 (T-47D breast) of 3.96 µM. For the same compound, the TGI (T-47D breast) was 16 µM, the GI50 (TK-10 renal) was 8.72 µM and the TGI (TK-10 renal) was 20.1 µM. It also gave a GI50 (U251 CNS) of 7.49 µM, a TGI (U251 CNS) of 16 µM and a GI50 (UACC-257 melanoma) of 7.28 µM. The TGI (UACC-257 melanoma) was 16.3 µM, the GI50 (UACC-62 melanoma) was 4.16 µM and the TGI (UACC-62 melanoma) was 12.1 µM. The GI50 (UO-31 renal) was 3.37 µM and the TGI (UO-31 renal) was 12 µM.
